The values that follow come from patent publication US20240383870A1, “HETEROCYCLIC ALDEHYDE TRAPPING COMPOUNDS AND USES THEREOF” (Aldeyra Therapeutics, Inc., priority 2021, published 2024).

Assay type in all cases: in vivo
What all share (conditions): 100 mpk IP; LPS-challenged mice, plasma at 6.5 h; unpaired t-test vs vehicle

The test system of one test is eotaxin. The test can be described thus: Acute LPS-induced sepsis in C57BL/6 mice: eotaxin cytokine detection assay.
For the next test, the system named is G-CSF. The test is described as follows: Acute LPS-induced sepsis in C57BL/6 mice: G-CSF cytokine detection assay.
A further test relates to IFNγ. The test is described as follows: Acute LPS-induced sepsis in C57BL/6 mice: IFNγ cytokine detection assay.
Another test concerns IL-3. The test is described as follows: Acute LPS-induced sepsis in C57BL/6 mice: IL-3 cytokine detection assay.
Another test has as its system IL-7. The test is described as follows: Acute LPS-induced sepsis in C57BL/6 mice: IL-7 cytokine detection assay.
The next test has as its system IL-10. The test can be described thus: Acute LPS-induced sepsis in C57BL/6 mice: IL-10 cytokine detection assay.
The test system of a further test is IL-12(p70). The test is described as follows: Acute LPS-induced sepsis in C57BL/6 mice: IL-12(p70) cytokine detection assay. The text has this:
FIG. 16 is a graph showing the results of an IL-12(p70) cytokine detection assay in samples collected from mouse subjects after administration of compounds of the present disclosure.
(§1) The primary objective of this study was to collect plasma samples of lipopolysaccharide (LPS) challenged C57BL/6 mice after dose of test compounds to provide a cytokine profile as impacted by prophylactic treatments. This study models acute sepsis, which is a systemic inflammatory syndrome initiated by Gram-negative and Gram-positive bacteria and fungi which infect the lungs, abdomen, bloodstream, and renal or genitourinary tracts. Sepsis patients ultimately die of multiorgan failure which is caused by extensive tissue hypo-oxygenation due to ongoing microvascular leakage, disseminated intravascular coagulation, compromised energy production, and metabolic alterations. Sepsis is characterized by an early systemic inflammatory response phase featuring symptoms, such as tachycardia, fever, hyperventilation, and activation of the complement and coagulation cascades. However, it is now appreciated that a compensatory anti-inflammatory response phase follows, characterized by neuroendocrine-mediated immunosuppression. Since these processes are the result of interaction between cells of inflammation and organs, investigation of the treatment of this syndrome requires the use of intact animal models. The use of ten mice per group allows useful statistical modelling of the results.
(§2) For the data shown in Table 2A, 103 mice (female, 18-22 gram, C57BL/6) were purchased from ENVIGO. The mice were housed in 20 cages of 5 mice per cage with 1 cage of 3 mice as extra. The cages had filter tops and autoclaved bedding, and the animals were placed in quarantine with daily inspection. The treatment groups are detailed in Table 2A below. 10 mice were included in each group. […] MC=methyl cellulose.
(§3) For the data shown in Table 2B, 185 mice (female, 18-22 gram, C57BL/6) were purchased from ENVIGO. The mice were housed in 37 cages of 5 mice per cage. The cages had filter tops and autoclaved bedding, and the animals were placed in quarantine with daily inspection. The treatment groups are detailed in Table 2B below. 10 mice were included in each group. The mice were dosed by oral gavage (P0) at 10 ml/kg as per the table below. MC=methyl cellulose.
(§4) At T=0 h, the mice were dosed with one of the test compounds as described in the above table.
(§5) At T=0.5 h, the mice were injected IP with 1.5 mg/kg […] (Sigma).
At T=6.5 h, all mice were anesthetized and exsanguinated into pre-chilled EDTA-treated tubes. The blood was processed to plasma which was stored in labeled 0.5 polypropylene snap-cap tubes (0.5 mL Eppendorf Safe-Lock Tubes (Fisher Scientific) at −80° C.
Preparation of vehicle: 1.0 gram of methyl cellulose (Sigma) was dissolved in 200 mL of water (USP purified) to make a solution of 0.5% methyl cellulose in water. Preparation of LPS solution: 6 mg of LPS (from Escherichia Coli 055:B5, Cat #L2880, Sigma Lot #057m4013) was dissolved in 20 ml of saline to give a LPS solution of 0.3 mg/ml. All mice were injected with 5 ml/kg (1.5 mg/kg) at the scheduled time by intraperitoneal injection.
A 32-plex cytokine panel was obtained from Eve Technologies. Each cytokine was assessed based against a 7 point curve range in duplicate. The average of the two replicate analyses was used for statistics. Unpaired t-tests were performed using Excel™ contrasting vehicle against each treatment group. One star indicates P<0.05. […]

A further test concerns IL-15. The test can be described thus: Acute LPS-induced sepsis in C57BL/6 mice: IL-15 cytokine detection assay.
Another test concerns IL-17. The test can be described thus: Acute LPS-induced sepsis in C57BL/6 mice: IL-17 cytokine detection assay.
Description: FIG. 19 is a graph showing the results of an IL-17 cytokine detection assay in samples collected from mouse subjects after administration of compounds of the present disclosure.
as §1, §2, §3, §4, §5
At T=6.5 h, all mice were anesthetized and exsanguinated into pre-chilled EDTA-treated tubes. […]
A 32-plex cytokine panel was obtained from Eve Technologies. Each cytokine was assessed based against a 7 point curve range in duplicate. […]

The test system of a further test is MIP-1a(CCL3). The test is described as follows: Acute LPS-induced sepsis in C57BL/6 mice: MIP-1a(CCL3) cytokine detection assay.

On to `CC(O)(c1sc2ccccc2c1N)C(F)(F)F` (stereo not shown) [Compound I-1, 2-(3-aminobenzo[b]thiophen-2-yl)-1,1,1-trifluoropropan-2-ol], for which the “Eotaxin: significant cytokine change vs. vehicle” value with eotaxin was “* (One star indicates P<0.05)”. Further, in the test on G-CSF, the “G-CSF: significant cytokine change vs. vehicle” value is on record as “* (One star indicates P<0.05)”. Besides, the “IFNy: significant cytokine change vs. vehicle” value in the test with IFNγ was “**** (Four stars indicates P<0.0001)”. Also, the “IL-3: significant cytokine change vs. vehicle” value in the test on IL-3 is “**** (Four stars indicates P<0.0001)”. For the same compound, the “IL-7: significant cytokine change vs. vehicle” value in the test on IL-7 is “* (One star indicates P<0.05)”. In addition, in the test on IL-10, the “IL-10: significant cytokine change vs. vehicle” value was “**** (Four stars indicates P<0.0001)”. The “IL-12 (p70): significant cytokine change vs. vehicle” value with IL-12(p70) was “* (One star indicates P<0.05)”. Besides, the “IL-15: significant cytokine change vs. vehicle” value in the test on IL-15 is recorded as “** (Two stars indicates P<0.01)”. In addition, in the test with IL-17, the “IL-17: significant cytokine change vs. vehicle” value was “*** (Three stars indicates P<0.001)”. Moreover, the “MIP-1a: significant cytokine change vs. vehicle” value in the test with MIP-1a(CCL3) is recorded as “** (Two stars indicates P<0.01)”.
